Consider 1 compound from patent EP2605769B1, “BENZOQUINONE DERIVATIVES FOR THE TREATMENT OF MITCHONDRIAL EYE DISEASES” (Santhera Pharmaceuticals (Schweiz) AG, priority 2010, dated 2012).

Values joined by “and” are separate entries in the source; they are usually repeats but may differ in a detail not shown here. Identical values can stand only once. Some results are limits rather than exact numbers.

For series [1] the following is noted: rats, cited from earlier work.
The subject of another series is C57BL/6J mice. The series is described as follows: Mouse model of intravitreal rotenone injection, histopathology, second study with modified less invasive injection method. The format is in vivo. From the text: This mouse model is used to assess the therapeutic potential of compounds in eye disorders characterized by mitochondrial dysfunction such as LHON, DOA, macular degeneration, retinopathy, and complex I deficiency. It is a widely accepted in vivo model based on single-eye intravitreal injection of the mitochondrial complex I inhibitor rotenone in the adult mouse. Intravitreal injection of rotenone induces neurotoxicity through mitochondrial complex I dysfunction in the retina which is the main molecular dysfunction […]. […] Histological analysis includes quantitative measurement of the retinal thickness (whole retina and individual layers), RGC apoptosis and cell death, oxidative stress, glutamine synthetase expression, and gliosis. The non-injected eye is used as a within subject, i.e. intraindividual, control. Male wild-type C57BL/6J mice (7 weeks old, about 25 g body weight) are individually housed in Makrolon type II cages with standard bedding and free access to food and water under a regular 12-hours light-dark cycle (8 a.m. to 8 p.m.). […] The injection is performed over a period of 2 min and the needle is kept in place for an additional 3 min, after which it is gently removed. Sterile surgical glue (Histoacryl, BRAUN/Aesculap AG, Germany) is used to seal the site of injection and a sterile antimicrobial ophtalmic ointment (Neosporin, GlaxoSmithKline, UK) is applied to the injected eye to avoid any infection. […] The eye balls are removed, retinas are dissected, fixed for an additional 2 h at 4°C, incubated in PB 0.1 M and 30% sucrose overnight, frozen in optimal cutting temperature compound (O.C.T., Tissue-Tek, Miles Laboratories, Elkhart, IN, USA), sliced at 14 μm, and collected onto glass slides for immunostaining. Immunostaining is performed accordingly to conventional method using multiple primary antibodies. Fluorescent-conjugated secondary antibodies and DAPI are used for visualization under a fluorescence microscope. All procedures are performed in accordance with the Swiss regulation and under a license approved by the "Kantonales Veterinäramt Basel-Land". […] A modified, less invasive injection method was used to further minimize damage caused by the injection itself. […] At 400 mg/kg Compound IA, a clear significant protection was observed (269 μm; p = 0.03), whereas at 2000 mg/kg a strong protective trend was detected (258 μm; p = 0.06). […] Table 6 In Table 6, the histological data on 7 days post-injection is expressed as % of sham (DMSO) injected control ± SEM. […] The term IA 200 defines a treatment with Compound IA at a concentration of 200 mg/kg; […], IA 400 and IA 2000: define a treatment with Compound IA at 400 mg/kg and at 2000 mg/kg, respectively. Statistical significance relative to vehicle + rotenone group is expressed as p ≤ 0.05 (*). n designates the number of retinas per group.

The next series has as its system RGC-5 cells. The series is described as follows: Cellular viability of RGC-like cells challenged with rotenone (cellular ATP content). The format is cell-based. From the text:
Mitochondrial impairment directly influences cellular survival. Especially cells and tissues that display high level of energy consumption, such as neurons are especially vulnerable. Consequently, these cells and tissues are likely to be the most responsive to a strategy that targets mitochondrial function. We addressed this possibility by assessing the viability of the retinal ganglion cell line RGC-5, challenged with the mitochondrial complex I inhibitor rotenone, in the absence or presence of compounds.
Experimental procedure: RGC-5 cells were cultured under ambient conditions (37 °C, 5% CO2, 90% humidity) in DMEM (1g/l glucose; 10% fetal bovine serum (FBS), Penicillin-Streptomycin-Glutamine (PSG)). RGC-5 cells will be seeded in DMEM (1g/l glucose; 2% FBS) into BD Falcon™ cell culture plates. Before rotenone- induced complex I inhibition, the cells were pre-treated with Compound IA or vehicle. For Compound IA co-treatment with rotenone, new compound was added together with rotenone-containing cell culture media. After the rotenone exposure, the media was exchanged and replaced by Hanks' BSS for the 1 day post-incubation. The post-treatment media contained Compound IA or vehicle only. As measure of cell viability, cellular ATP content was analyzed using luminescence from ATP-dependent enzymatic oxidation of luciferin by luciferase. RGC-5 cells were be washed with PBS and lysed in lysis buffer (4 mM EDTA, 0.2% Triton X-100) at room temperature. In 96-well plates, ATP measurement buffer (25 mM HEPES pH 7.25, 300 µM D-luciferin, 5 µg/ml firefly luciferase, 75 µM DTT, 6.25 mM MgCl2, 625 µM EDTA and 1 mg/ml BSA) was combined with lysate to start the reaction. Luminescence was quantified immediately using a multimode plate reader (Tecan M1000, Tecan iControl 1.6 software; Tecan Austria GmbH, Grödig, Austria). Effects on cell viability were defined as the percentage of compound-mediated change in cell viability relative to rotenone-induced reduction in cell viability. Data are presented as mean ± SEM. Paired Student's t-test was used to compare non-normalized data. Statistical significance was set at p≤0.05(*), p≤0.01(**) and p≤0.001(***).

[2] abbreviates: oral dose of 10 mg/kg, Torii et al.
The mark [3] stands for this setting: 200 mg/kg + rotenone, 7 days post-injection, ± SEM.
Where [4] appears, read: 400 mg/kg + rotenone, 7 days post-injection, ± SEM.
[5] abbreviates: 2000 mg/kg + rotenone, 7 days post-injection, ± SEM.

As to `COC1=C(OC)C(=O)C(CCCCCCCCCCO)=C(C)C1=O` [Compound IA, Idebenone], the brain- to-plasma ratio in series [1] (oral 100 mg/kg, Nagai et al) is listed as 1-2%. In series [1] (setting [2]), the “levels in the brain of total idebenone (including metabolites)” value is 10 ng/mL. Moreover, in series [1] (setting [2]), the “plasma levels of total idebenone (including metabolites, by radioactivity)” value was “approximately 1000 ng/ml”. Further, the Gliosis in the series with C57BL/6J mice (setting [3]) was 124.46 ± 7.37 * (n=7) % of sham (DMSO) injected control; with C57BL/6J mice (setting [4]), 125.04 ±9.12 * (n=6) % of sham (DMSO) injected control; with C57BL/6J mice (setting [5]) it was 129.86 ± 7.32 * (n=7) % of sham (DMSO) injected control. In addition, the figures for the RGC number with C57BL/6J mice (setting [3]), in the series on C57BL/6J mice (setting [4]) and in the series with C57BL/6J mice (setting [5]) were 62.53 ± 9.13 (n=7) % of sham (DMSO) injected control, 63.68 ± 5.98 * (n=6) % of sham (DMSO) injected control and 64.44 ± 4.56 * (n=8) % of sham (DMSO) injected control, respectively. The Retinal thickness in the series on C57BL/6J mice (setting [3]) is 91.17 ± 5.72 (n=8) % of sham (DMSO) injected control; in the series with C57BL/6J mice (200 mg/kg, 7 days after rotenone-injection, sham about 300 µm, rotenone 220 µm), 272 µm; in the series with C57BL/6J mice (setting [4]), 89.93 ± 2.16 * (n=6) % of sham (DMSO) injected control; in the series on C57BL/6J mice (400 mg/kg, 7 days after rotenone-injection, sham about 300 µm, rotenone 220 µm), 269 µm; in the series with C57BL/6J mice (setting [5]) it was 86.58 ± 2.51 (n=8) % of sham (DMSO) injected control; in the series with C57BL/6J mice (2000 mg/kg, 7 days after rotenone-injection, sham about 300 µm, rotenone 220 µm) it was 258 µm. Also, the “cell viability, compound-mediated change relative to rotenone-induced reduction, mean” value is 12.6% in the series with RGC-5 cells (1 day-preincubation, 100 nM); 1.0% in the series with RGC-5 cells (2 day-preincubation, 1 nM); 7% and 7.3% with RGC-5 cells (2 day-preincubation, 10 nM); 35% and 34.9% with RGC-5 cells (2 day-preincubation, 100 nM); 58% and 58.4% in the series on RGC-5 cells (2 day-preincubation, 1000 nM). Further, the “cell viability, compound-mediated change relative to rotenone-induced reduction, mean (Fig. 2)” value with RGC-5 cells (1 day-preincubation, 1 µM) was “highly significant”. Also, in the series on RGC-5 cells (rotenone challenge, dose dependent), the “concentrations at which viability of RGC-5 cells was significantly rescued” value is listed as at least 10 nM.
